In data set [1] the test system is C. albicans ATCC 10231. It is filed as cell-based, Candida albicans. The conditions noted are these: repeated treatments with sub-MIC drug concentrations.
For the next data set, the target named is hERG channel (Homo sapiens, UniProt Q12809). Description: in vitro. Particulars: pH 7.4. How it is done:
Assays were conducted in duplicate, and three independent assays were performed for each compound that was evaluated. Cell membrane suspension (5 μg) was added to duplicate tubes containing assay buffer (50 mM Tris, 10 mM KCl, and 1 mM MgCl2, pH 7.4), 25 μL of a single concentration of analogue (a concentration range of 10 nM-100 μM was employed for each experiment), and 25 μL of [^3H]dofetilide (5 nM, final concentration) for an assay volume of 250 μL. Nonspecific binding was assessed in the presence of 1 mM amitriptyline. Binding occurred for 60 min at 25° C. and was terminated by rapid filtration through Whatman GF/B filters, which were pre-soaked in 0.5% PEI for 2 h. Filters were washed three times with ˜1 mL of ice-cold assay buffer. Radioactivity retained by the filters was determined by liquid scintillation counting by using a Tri-Carb 2100TR liquid scintillation analyzer (PerkinElmer Life and Analytical Sciences, Boston, Mass.).

In a further data set the test system is VRE (strain D). In kind it is cell-based, enterococcus. The conditions noted are these: up to 15 passages. How it is done: (§1) The bacteria were grown in MH broth at 37° C. for these experiments. […] The resulting cultures were diluted 1:1000 and grown until the culture reached ˜300,000 cfu/mL. That culture was then further diluted 1:1000 and used to determine the next round of MIC values.

The test system of data set [2] is P. aeruginosa ATCC 27853 (strain I). In kind it is cell-based. The conditions noted are these: up to 15 passages. How it is done:
as §1

The next data set has as its system MRSA (strain C). It is filed as cell-based, Staphylococcus aureus. The conditions noted are these: up to 15 passages. How it is done:
as §1

Data set [3] has as its system C. albicans ATCC 10231. In words: Intracellular ROS production, DCFH-DA fluorescence assay. It is filed as cell-based, Candida albicans. Particulars: at 1× and 2× MIC values, 1 h at 35° C. From the text:
We used the 2′,7′-dichlorodihydrofluorescein diacetate (DCFH-DA) dye as a probe to measure the production of ROS in yeast cells upon treatment with our compounds. DCFH-DA can easily cross the cell membranes and be hydrolyzed by cellular esterases to the non-fluorescent 2′,7′-dichlorodihydrofluorescein (DCFH), which can further be oxidized to the highly fluorescent 2′,7′-dichlorofluorescein (DCF) by the intracellular ROS. Five mL of RPMI 1640 medium were inoculated using a single colony of C. albicans ATCC 10231 (strain A) in a Falcon tube and grown overnight at 35° C. at 200 rpm. The overnight culture was diluted by adding 200 μL of yeast cells to 800 μL of the same medium. […] H2O2 at 1 mM was also used as a positive control. Cells were centrifuged and washed twice with PBS buffer (pH 7.2). Cells were resuspended in the same buffer and incubated with DCFH-DA (20 μg/mL) for 30 min in the dark. Afterwards, cells were centrifuged and washed with PBS buffer to remove excess DCFH-DA. Glass slides with 10-15 μL of each mixture were prepared and observed in bright field and fluorescence modes (FITC filter set, excitation and emission wavelengths of 488 and 512 nm, respectively) using a Zeiss Axovert 200M fluorescence microscope (FIG. 3).

A further data set concerns M. smegmatis MC2-155. Description: Antibacterial MIC, double-dilution method. Particulars: Mycolicibacterium smegmatis, MC2155, strain K, mycobacterial, read-out: MIC. In kind it is cell-based. A digest of the protocol:
(§2)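 Step one: single-point test of each compound at 500 μM. Step two: MIC determination across doubling dilutions.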

Data set [4] relates to L. monocytogenes ATCC 19115 (strain B). In kind it is cell-based, Listeria monocytogenes. The conditions noted are these: up to 15 passages. How it is done:
as §1

In data set [5] the test system is all bacterial strains tested. Description: Antibacterial MIC, summary over the panel. It is filed as cell-based. Particulars: read-out: antibacterial MIC values. A digest of the protocol: as §2

Results on four compounds are retold here after patent US10173968B2, “Bishydrazone-based antifungal agents” (University of Kentucky Research Foundation, priority 2016, dated 2019).

Each structure is given as a SMILES string. Read-outs that look alike come from different tables or passages of the source.

Sequence of hERG channel (Q12809 whole entry): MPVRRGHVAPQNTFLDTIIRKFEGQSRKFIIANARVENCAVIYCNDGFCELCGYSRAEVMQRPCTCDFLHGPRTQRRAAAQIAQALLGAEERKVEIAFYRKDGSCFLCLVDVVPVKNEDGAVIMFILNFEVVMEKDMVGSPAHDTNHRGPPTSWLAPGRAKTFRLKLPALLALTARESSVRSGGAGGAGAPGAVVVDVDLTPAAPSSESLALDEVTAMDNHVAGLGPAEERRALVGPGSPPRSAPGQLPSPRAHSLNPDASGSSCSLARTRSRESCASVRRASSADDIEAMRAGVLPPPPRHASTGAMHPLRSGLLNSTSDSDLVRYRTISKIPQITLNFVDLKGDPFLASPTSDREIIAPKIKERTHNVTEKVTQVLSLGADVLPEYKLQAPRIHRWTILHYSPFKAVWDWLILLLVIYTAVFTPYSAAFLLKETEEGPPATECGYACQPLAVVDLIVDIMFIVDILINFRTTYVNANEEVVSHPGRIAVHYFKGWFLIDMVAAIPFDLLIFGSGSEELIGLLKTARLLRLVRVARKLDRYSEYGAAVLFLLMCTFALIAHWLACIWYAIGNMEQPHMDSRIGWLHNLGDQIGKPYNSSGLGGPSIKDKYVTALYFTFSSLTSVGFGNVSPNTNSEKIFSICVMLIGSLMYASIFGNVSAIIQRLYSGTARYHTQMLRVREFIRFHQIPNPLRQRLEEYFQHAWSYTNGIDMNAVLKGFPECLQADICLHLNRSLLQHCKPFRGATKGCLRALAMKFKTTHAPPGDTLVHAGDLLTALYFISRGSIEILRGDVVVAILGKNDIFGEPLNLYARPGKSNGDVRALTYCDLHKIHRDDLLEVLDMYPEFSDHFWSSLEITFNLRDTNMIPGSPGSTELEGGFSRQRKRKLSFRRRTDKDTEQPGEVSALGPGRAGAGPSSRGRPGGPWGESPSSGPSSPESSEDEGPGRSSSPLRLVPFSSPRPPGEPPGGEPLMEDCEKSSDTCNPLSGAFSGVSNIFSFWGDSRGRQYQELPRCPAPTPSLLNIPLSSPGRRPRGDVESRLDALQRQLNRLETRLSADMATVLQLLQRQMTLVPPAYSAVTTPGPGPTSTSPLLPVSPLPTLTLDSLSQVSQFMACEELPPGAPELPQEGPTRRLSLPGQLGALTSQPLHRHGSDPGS

As to `Cl.N=C(N)N/N=C/c1ccc(-c2ccc(C=NNc3ccccc3Cl)cc2)cc1` (mixture of isomers) [Compound 7Aa, E)-2-((4′-((E and Z)-(2-(2-Chlorophenyl)hydrazono)methyl)-[1,1′-biphenyl]-4-yl)methylene)hydrazine-1-carboximidamide monohydrochloride], the “development of drug resistance” value in the data set with C. albicans ATCC 10231 [1] was “unable to develop drug resistance”. Further, the IC50 at 60 min against hERG channel was determined as 1140 ± 267 nM. For the same compound, the “development of resistance (passages after which resistance developed)” value in the data set on VRE (strain D) is listed as “did not develop resistance”; in data set [2], “twelve”; in the data set on MRSA (strain C) it was “twelve”; in data set [4], “did not develop resistance”. Besides, the “intracellular ROS production” value in the data set with C. albicans ATCC 10231 [3] is on record as “significantly increased intracellular ROS production”. In addition, the MIC with M. smegmatis MC2-155 (converted from μM) was determined as 1.7 µg/mL; with M. smegmatis MC2-155 (range 0.5 to 500 μM) it was 3.9 µM.

With `Cl.Cl.N=C(N)N/N=C/c1ccc(-c2cccc(/C=N/NC(=N)N)c2)cc1` [Compound 3B, (2E,2′E)-2,2′-([1,1′-Biphenyl]-3,4′-diylbis(methanylylidene))bis(hydrazine-1-carboximidamide) dihydrochloride], the minimal inhibitory concentration (MIC) with M. smegmatis MC2-155 (converted from μM) is 0.4 µg/mL; in the data set with M. smegmatis MC2-155 (range 0.5 to 500 μM) it was 1 µM; in data set [5], 0.4 to 3.3 µg/mL.

On to `Cl.N=C(N)N/N=C/c1ccc(-c2ccc(/C=N/Nc3ccc(Cl)cc3)cc2)cc1` [Compound 7Ad, (E)-2-((4′-((E)-(2-(4-Chlorophenyl)hydrazono)methyl)-[1,1′-biphenyl]-4-yl)methylene)hydrazine-1-carboximidamide monohydrochloride], for which the melting point was greater than 380 °C. In addition, in the data set with M. smegmatis MC2-155 (converted from μM), the MIC was 1.7 µg/mL. In the data set with M. smegmatis MC2-155 (range 0.5 to 500 μM), the MIC was 3.9 µM. For the same compound, the minimum inhibitory concentration (MIC) in [5] lay within 0.4 to 3.3 µg/mL.

For `Cl.N=C(N)N/N=C/c1ccc(-c2ccc(/C=N/Nc3ccc(F)cc3F)cc2)cc1` [Compound 7Af, (E)-2-((4′-((E)-(2-(2,4-Difluorophenyl)hydrazono)methyl)-[1,1′-biphenyl]-4-yl)methylene) hydrazine-1-carboximidamide, monohydrochloride], the melting point is greater than 380 °C. Besides, the MIC with M. smegmatis MC2-155 (converted from μM) lay within 0.9 to 1.7 µg/mL. For the same compound, the MIC in the data set on M. smegmatis MC2-155 (range 0.5 to 500 μM) was in the range of 2 to 3.9 µM. In addition, in data set [5], the MIC is 0.4 to 3.3 µg/mL.
